# Reference: patent publication US20230057984A1, “NORMALIZATION OF CULTURE OF CORNEAL ENDOTHELIAL CELLS” (KYOTO PREFECTURAL PUBLIC UNIVERSITY CORPORATION, priority 2011, published 2023)
# Read-outs that look alike come from different tables or passages of the source.
# Legend:
# [1] = system: Human corneal endothelial cells; details: HCEC after subculturing
# Experimental: Next, subculturing was performed with trypsin. Comparison was made between cells cultured in Opti-MEM I Reduced-Serum Medium, Liquid (INVITROGEN catalog number: 31985-070)+8% fetal bovine serum (FBS) (BIOWEST, catalog number: S1820-500)+[…] CaCl2.2H2O (SIGMA catalog number: C7902-500G)+0.08% chondroitin sulfuric acid (SIGMA catalog number: C9819-5G)+20 μg ascorbic acid (SIGMA catalog number: A4544-25G)+50 μg/ml gentamicin (INVITROGEN catalog number: 15710-064)+5 ng/ml EGF (INVITROGEN catalog number: PHG0311) as a normal culture medium, and cells cultured in the above-mentioned culture medium with Smad3 inhibitor (0.3 mM and 3 mM) added thereto.
# [2] = system: Human corneal endothelial cells; assay: Culture of human corneal endothelial cells with SB203580 in conjunction with SB431542 (Example 7); assay type: cell-based; details: HCEC
# Experimental: Corneal endothelial cells were mechanically exfoliated together with basement membranes from research corneas purchased from the Seattle bank, followed by exfoliating from the basement membranes using collagenase for collection, and then primary culturing. […] In addition, culturing was performed using a base culture medium with SB431542 (1 μmol/l, TOCRIS, catalog number:1614) added thereto, with SB203580 (1 μmol/l, CALBIOCHEM, catalog number: 559389) added thereto, and with SB431542 (1 μmol/l) and SB203580 (1 μmol/l) added thereto.
# [3] = system: corneal endothelial failure model (bullous keratopathy model); assay: Transplantation of cultured human corneal endothelial cells to cynomolgus monkey bullous keratopathy model (Example 9); assay type: in vivo
# Source text: Under general anesthesia, the peripheral portion of a cornea of a cynomolgus monkey is cut by 1.5 mm, and a silicon surgical instrument is inserted into an anterior chamber to mechanically currete a corneal endothelial cell, thus creating a bullous keratopathy model. Next, of human corneal endothelial cells cultured by the method according to the present invention ex vivo, 2.0×10^5 were suspended in a basal culture medium, and a ROCK inhibitor having an adhesion promoting effect, Y-27632, was added thereto such that the final concentration would be 100 μmol/l, followed by introduction into the anterior chamber. As a control, 2.0×10^5 human corneal endothelial cells, suspended in a basal culture medium, were introduced without a ROCK inhibitor. After introduction, the model was maintained with its head down for three hours so that the eyeball would be downwards, thus promoting cellular adhesion to the corneal endothelium surface. Therapeutic effects of bullous keratopathy by transplanting a cultured corneal endothelium sheet was evaluated by corneal transparency evaluation through a slit-lamp microscope, and corneal thickness measurement using a ultrasonic tachymeter (FIG. 14). […] Then, similar to Example 2, immunostaining was performed directed to phalloidin, Na^+/K^+-ATPase and ZO-1, followed by taking images using a fluorescence microscope (FIG. 15). […]
# [4] = system: monkey corneal endothelial cells; assay: Addition of TGF-β to monkey corneal endothelial cells: cell form and immunostaining (Example 4); assay type: cell-based, cynomolgus monkey
# [5] = system: monkey corneal endothelial cells; assay: Addition of TGF-β to monkey corneal endothelial cells: Western blot of Na+/K+-ATPase and ZO-1 (Example 4); assay type: cell-based, cynomolgus monkey; details: monkey CEC, TGF-β 0, 1, 3, 10, 30 ng/ml, concentration dependent
# Smad2 = assay: Addition of TGF-β to monkey corneal endothelial cells: Western blot of pSmad2/Smad2 (Example 4); assay type: cell-based, cynomolgus monkey; details: monkey CEC, TGF-β 0, 1, 10 ng/ml
# [6] = system: Human corneal endothelial cells; assay: Culture of human corneal endothelial cells with BMP-7: phase-contrast and phalloidin staining (Example 6); assay type: cell-based
# Experimental: (§1) Next, by using three different concentrations, BMP7 was able to suppress the change in a HCEC to a fibroblast phenotype and to maintain the function thereof. […] Thus, this molecule is used to antagonize an EMT process [Zeisberg M, et al. (2003) Nat Med 9: 964-968], [Simic P, et al. (2007) EMBO Rep 8: 327-331], [Buijs J T, et al. (2007) Am J Pathol 171: 1047-1057], [Zeisberg M, et al. (2007) J Biol Chem 282: 23337-23347]. […] Fibroblast-like HCEC was treated with BMP-7 in the concentration ranging from 10 to 1,000 ng/ml.
# [7] = system: Human corneal endothelial cells; assay: Na+/K+-ATPase and ZO-1 staining of human corneal endothelial cells treated with BMP-7 (FIG. 10A C-F); assay type: cell-based
# Experimental: For tissue staining examination, cultured MCECs or HCECs were put into Lab-Tek™ Chamber Slides™ (NUNC A/S, Roskilde, Denmark), fixed with 4% formaldehyde for 10 minutes at a room temperature (RT), and incubated for 30 minutes with 1% bovine serum albumin (BSA). Specifically, cultured MCECs or HCECs on the Lab-Tek™ Chamber Slides™ (NUNCA/S, Roskilde, Denmark) were fixed at a room temperature for 10 minutes in 4% formaldehyde, followed by incubation for 30 minutes together with 1% bovine serum albumin (BSA). In order to examine the phenotype of CEC, immunohistochemical analysis was directed to a protein associated with tight junction, ZO-1 (Zymed Laboratories, Inc., South San Francisco, Calif.), a protein associated with the pumping function, Na^+/K^+-ATPase (Upstate Biotec, Inc., Lake Placid, N.Y.), fibronectin (BD, Franklin Lakes, N.J.), and actine. As markers associated with the function of CEC, ZO-1 and Na^+/K^+-ATPase were used; fibronectin and type 1 collagen were used to evaluate the change in a fibroblastic manner; and staining of actine was used to evaluate the phenotype of the cells. Staining of ZO-1, Na^+/K^+-ATPase, type 1 collagen and fibronectin was each performed using 1:200 dilution of ZO-1 polyclonal antibody, Na^+/K^+-ATPase monoclonal antibody, and fibronectin monoclonal antibody. As to secondary antibody, 1:2000 dilution of Alexa Fluor (registered trademark) 488 label or Alexa Fluor (registered trademark) 594 label goat antimouse IgG (Life Technologies) was used. Staining of actine was performed using 1:400 dilution of Alexa Fluor (registered trademark) 488 label phalloidin (Life Technologies). Next, the nucleus of each cell was stained with DAPI (Vector Laboratories, Inc., Burlingame, Calif.) or PI (Sigma-Aldrich). Next, the slides were observed through a fluorescence microscope (TCS SP2 AOBS; Leica Microsystems, Welzlar, Germany).
# as §1
# [8] = fibroblast-like HCEC, BMP-7 10 to 1,000 ng/ml
# [9] = HCEC, three concentrations of BMP-7 vs additive-free control
molecule,measurement,setting,value
"COc1cc2c(cc1OC)CN(C(=O)/C=C/c1c(-c3ccccc3)n(C)c3ncccc13)CC2 [Smad3 inhibitor, 6,7-dimethoxy-2-((2E)-3-(1-methyl-2-phenyl-1H-pyrrolo[2,3-b]pyridine-3-yl-prop-2-enoyl))-1,2,3,4-tetrahydroiso quinolone]",cell form (phase-contrast microscope),[1]; Smad3 inhibitor 0.3 mM vs normal culture medium,a layer of polygonal cells with high density were maintained
same,cell form (phase-contrast microscope),[1]; Smad3 inhibitor 3 mM vs normal culture medium,a layer of polygonal cells with high density were maintained
"C[S+]([O-])c1ccc(-c2nc(-c3ccc(F)cc3)c(-c3ccncc3)[nH]2)cc1 (centres unmarked) [SB203580, 4-[4-(4-fluorophenyl)-2-(4-methylsulfinylphenyl)-1H-imidazole-5-yl]pyridine]",corneal endothelium density,[2]; SB203580 1 μmol/l added to SB431542 1 μmol/l,increased
same,culture normalization,"[2]; SB203580 1 μmol/l in conjunction with SB431542 1 μmol/l, repeated subculturing",culture normalization was enhanced
"C[C@@H](N)[C@H]1CC[C@H](C(=O)Nc2ccncc2)CC1.Cl.Cl.O (relative stereo) [Y-27632, (R)-(+)-trans-(4-pyridyl)-4-(1-aminoethyl)-cyclohexanecarboxamide 2 hydrochloride 1 hydrate]",therapeutic result: corneal transparency (slit-lamp microscope) and corneal thickness,"[3]; 2.0×10^5 cultured human corneal endothelial cells into anterior chamber, with or without Y-27632 100 μmol/l",further improved
same,"therapeutic result: immunostaining of phalloidin, Na+/K+-ATPase and ZO-1 of extracted corneas","[3]; 2.5 months after introduction, cells alone or cells + ROCK inhibitor",further improved
"TGF-β: transforming growth factor-β, R&D SYSTEMS catalog number 240-B, added to induce transformation",cell form of normal phenotype after exposure to exogenous TGF-β,"[4]; monkey CEC cultured to sub-confluency, TGF-β1 0, 1, 10 ng/mL",transformed into a fibroblast-like cell
same,staining patterns of Na+/K+-ATPase and ZO-1 in plasma membranes,[4]; monkey CEC normal phenotype exposed to TGF-β,completely lost
same,expression of Na+/K+-ATPase and ZO-1 at the protein level (Western blot),[5],significantly decreased
same,phosphorylation of Smad2 (Western blot),Smad2,greatly increased in the concentration dependent form
"BMP-7: bone morphogenic protein 7, anti-EMT factor, R&D SYSTEMS catalog number 354-BP (protein, UniProt P18075 293-431, looked up) Bone morphogenetic protein 7: STGSKQRSQNRSKTPKNQEALRMANVAENSSSDQRQACKKHELYVSFRDLGWQDWIIAPEGYAAYYCEGECAFPLNSYMNATNHAIVQTLVHFINPETVPKPCCAPTQLNAISVLYFDDSSNVILKKYRNMVVRACGCH",cell form (phalloidin staining and phase-contrast microscope),"[6]; HCEC subcultured in conditioned culture medium with BMP-7 100 ng/ml, control transformed, multi-layered",the form of a layer of polygonal cells was maintained
same,cell form and actine cytoskeleton distribution (phalloidin staining),[6]; [8],"allowed for a normal hexagonal cell form, and allowed for cytoskeleton distribution on the cell surface of actine"
same,elongated cell form of fibroblast phenotype (phase-contrast),"[6]; fibroblast-like HCEC, BMP-7 10 to 1,000 ng/ml, concentration-dependent manner",converted into a polygonal cell form
same,maintaining CEC in polygonal form and contact inhibition phenotype with positive expression of function-associated marker,"[7]; HCEC, BMP-7 10 ng/ml",tendency was seen
same,maintaining CEC in polygonal form and contact inhibition phenotype with positive expression of function-associated marker,"[7]; HCEC, BMP-7 100 ng/ml",tendency increased
same,maintaining CEC in polygonal form and contact inhibition phenotype with positive expression of function-associated marker,"[7]; HCEC, BMP-7 1,000 ng/ml",tendency was more significant
same,percentage of Na+/K+-ATPase positive cell,[7]; [9],significantly increased
same,percentage of ZO-1 positive cell,[7]; [9],significantly increased
same,intracellular localization of Na+/K+-ATPase and ZO-1,[7]; [8],maintained the intracellular localization of Na^+/K^+-ATPase and ZO-1 in a cell membrane
same,harmful effects with regard to the forms or functions,HCEC,"not seen any clear, harmful effects"
